Results: patent US20260200925A1, “SMALL MOLECULE INHIBITORS OF KRAS MUTATED PROTEINS” (MERCK SHARP & DOHME LLC, priority 2021, published 2026)

Legend:
NRAS (SEQ ID NO: 5) = NRAS (SEQ ID NO: 5) (Homo sapiens, UniProt P01111); assay: SOS-catalyzed guanine nucleotide exchange (GNE) assay, NRAS
Procedure: (§1) Specifically, the SOS-catalyzed nucleotide exchange assay utilizes a preformed time-resolved fluorescence resonance energy transfer (TR-FRET) complex containing a specific biotinylated RAS protein (KRAS-G12C/V/D, HRAS, NRAS; described above) with BODIPY-GDP, and Terbium-streptavidin. Test compounds are preincubated with this complex for 60 minutes.
(§2) To assemble the preformed TR-FRET complexes, each biotinylated RAS protein is diluted to 2 μM in an EDTA Buffer (20 mM HEPES, 50 mM sodium chloride, 10 mM EDTA, and 0.01% Tween) and incubated at room temperature for one hour. This mixture is then further diluted to 90 nM in an Assay Buffer (20 mM HEPES, 150 mM sodium chloride, 10 mM magnesium chloride, and 0.005% Tween) containing 15 nM of Terbium-Streptavidin (Invitrogen, catalog #PV3577) and 900 nM of BODIPY-GDP (Invitrogen, catalog #G22360) and incubated at room temperature for six hours. It should be noted that this preformed TR-FRET complex for each of the RAS proteins was made ahead of time, aliquoted and stored at −80° C. until the day of the experiment.
(§3) Once titrations are made, 10 nL of the diluted compounds is acoustically dispensed into a 384-well assay plate (Corning, catalog #3820) using an Echo 550 (Labcyte). Each well of the assay plate subsequently receives 3 μL of a specific 3× RAS preformed TR-FRET complex and 3 μL of Assay Buffer and is incubated at room temperature for 60 minutes (preincubation time). […] The final reaction in each well of 9 μL consists of 3 mM GTP, and the specific RAS and SOS proteins in the following concentrations: KRAS-G12C/SOS=3 nM/40 nM, KRAS-G12D/SOS=1 nM/40 nM, KRAS-G12V/SOS=1.25 nM/160 nM, HRAS/SOS=1.25 nM/40 nM, and NRAS/SOS=1.25 nM/40 nM.
(§4) The TR-FRET signal is measured on an Envision (PerkinElmer) plate reader: Excitation filter=340 nm; emission 1=495 nm; emission 2=520 nm; dichroic mirror=D400/D505; delay time=100 ms. The signal of each well is determined as the ratio of the emission at 520 nm to that at 495 nm. […] The apparent effect as a function of compound concentration is fit to a four-parameter logistic equation to calculate IC50 values using Spotfire software.

[1] = test system: NCI-H358 cells containing homozygous KRAS-G12C activating mutation (p-ERK); conditions: Homo sapiens, NCI-H358, 2 h, read-out: G12C H358 IC50 (nM)
Procedure: Procedure for Cellular Phospho-ERK Assay, G12C
NCI-H358 cells (ATCC® CRL-5807™), containing homozygous KRAS-G12C activating mutation, were cultured in T150 flask in growth medium (RPMI medium 1640-GlutaMAX™—I (ThermoFisher Scientific 61870) containing 10% fetal bovine serum (ThermoFisher Scientific 10091148)). The cells were harvested in growth medium after TrypLE (ThermoFisher scientific 12604021) digestion and were seeded in a 384-well collagen coated cell culture plate (Corning 356702) at a density of 15,000 cells/well, and incubated at 37° C., 5% CO2 overnight. […] RPMI medium 1640-GlutaMAX™—I was added to the intermediate plate and the contents of the intermediate plate were then transferred to the 384-well collagen coated cell culture plate, which was incubated at 37° C., 5% CO2 for 2 hours. After removal of medium from the collagen coated cell culture plate, cells were lysed in lysis buffer from Alpha SureFire® Ultra™ Multiplex p-ERK and total ERK assay kit (PerkinElmer MPSU-PTERK) containing Halt™ Protease and Phosphatase inhibitor cocktail (ThermoFisher Scientific 78446) at room temperature with constant shaking at 300 rpm for 30 minutes. The cell lysates were then transferred to an OptiPlate-384 plate (PerkinElmer 6005620), and the phosphorylation of ERK (p-ERK) and total ERK levels were detected by Alpha SureFire® Ultra™ Multiplex p-ERK kit and total ERK assay kit (PerkinElmer MPSU-PTERK) following the manufacturer's protocol. Assay plates were read on an EnVision Multimode Plate Reader (PerkinElmer), and the ratio of p-ERK vs. total ERK in each well was used as the final readout. Dose response curves were analyzed using a 4-parameter logistic model to calculate IC50 values using Spotfire software.

[2] = test system: AsPC-1 cells containing homozygous KRAS-G12D activating mutation (p-ERK); conditions: Homo sapiens, ASPC1, 2 h, read-out: KRAS G12D ASPC-1 IC50 (nM)
Procedure: Procedure for Cellular Phospho-ERK Assay, G12D
AsPC-1 cells (ATCC® CRL-1682™), containing homozygous KRAS-G12D activating mutation, were cultured in T150 flask in growth medium (RPMI medium 1640-GlutaMAX™—I (ThermoFisher Scientific 61870) containing 10% fetal bovine serum (ThermoFisher Scientific 10091148)). The cells were harvested in growth medium after TrypLE (ThermoFisher scientific 12604021) digestion and were seeded in a 384-well collagen coated cell culture plate (Corning 356702) at a density of 15,000 cells/well, and incubated at 37° C., 5% CO2 overnight. […] RPMI medium 1640-GlutaMAX™—I was added to the intermediate plate and the contents of the intermediate plate were then transferred to the 384-well collagen coated cell culture plate, which was incubated at 37° C., 5% CO2 for 2 hours. After removal of medium from the collagen coated cell culture plate, cells were lysed in lysis buffer from Alpha SureFire® Ultra™ Multiplex p-ERK and total ERK assay kit (PerkinElmer MPSU-PTERK) containing Halt™ Protease and Phosphatase inhibitor cocktail (ThermoFisher Scientific 78446) at room temperature with constant shaking at 300 rpm for 30 minutes. The cell lysates were then transferred to an OptiPlate-384 plate (PerkinElmer 6005620), and the phosphorylation of ERK (p-ERK) and total ERK levels were detected by Alpha SureFire® Ultra™ Multiplex p-ERK kit and total ERK assay kit (PerkinElmer MPSU-PTERK) following the manufacturer's protocol. Assay plates were read on a EnVision Multimode Plate Reader (PerkinElmer), and the ratio of p-ERK vs. total ERK in each well was used as the final readout. Dose response curves were analyzed using a 4-parameter logistic model to calculate IC50 values using Spotfire software.
HRAS (SEQ ID NO: 4) = HRAS (SEQ ID NO: 4) (Homo sapiens, UniProt P01112); assay: SOS-catalyzed guanine nucleotide exchange (GNE) assay, HRAS
Sequence of HRAS (SEQ ID NO: 4) (P01112 with tags, fused parts or gaps): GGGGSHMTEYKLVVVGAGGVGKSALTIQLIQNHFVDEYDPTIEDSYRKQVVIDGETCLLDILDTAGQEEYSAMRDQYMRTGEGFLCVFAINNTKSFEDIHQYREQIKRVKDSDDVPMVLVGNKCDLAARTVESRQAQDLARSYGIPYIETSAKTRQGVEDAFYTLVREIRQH
Procedure: as §1, §2, §3, §4

[3] = biological target: Recombinant KRAS-G12D (SEQ ID NO: 2) (Homo sapiens, UniProt P01116, G12D); assay: SOS-catalyzed guanine nucleotide exchange (GNE) assay, KRAS-G12D
Sequence of Recombinant KRAS-G12D (SEQ ID NO: 2) (P01116 with tags, fused parts or gaps isoform P01116-2 G12D): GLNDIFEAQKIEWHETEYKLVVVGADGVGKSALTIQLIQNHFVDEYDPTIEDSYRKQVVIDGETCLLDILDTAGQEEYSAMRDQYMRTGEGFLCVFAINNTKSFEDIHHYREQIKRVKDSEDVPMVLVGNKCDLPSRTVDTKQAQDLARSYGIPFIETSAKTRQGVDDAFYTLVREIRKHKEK
Procedure: as §1, §2, §3, §4

[4] = biological target: Recombinant KRAS-G12V (SEQ ID NO: 3) (Homo sapiens, UniProt P01116, G12V); assay: SOS-catalyzed guanine nucleotide exchange (GNE) assay, KRAS-G12V
Sequence of Recombinant KRAS-G12V (SEQ ID NO: 3) (P01116 with tags, fused parts or gaps isoform P01116-2 G12V): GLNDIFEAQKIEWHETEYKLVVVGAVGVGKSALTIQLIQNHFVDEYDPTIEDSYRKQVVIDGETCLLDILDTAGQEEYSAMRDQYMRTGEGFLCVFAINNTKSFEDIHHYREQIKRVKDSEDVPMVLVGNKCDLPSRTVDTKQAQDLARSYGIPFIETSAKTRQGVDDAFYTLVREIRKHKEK
Procedure: as §1, §2, §3, §4

G13D = G13D (Homo sapiens, UniProt P01116, G13D); assay: Guanine nucleotide exchange (GNE) assay, G13D; type: biochemical
Sequence of G13D (P01116 1-188 isoform P01116-2 G13D): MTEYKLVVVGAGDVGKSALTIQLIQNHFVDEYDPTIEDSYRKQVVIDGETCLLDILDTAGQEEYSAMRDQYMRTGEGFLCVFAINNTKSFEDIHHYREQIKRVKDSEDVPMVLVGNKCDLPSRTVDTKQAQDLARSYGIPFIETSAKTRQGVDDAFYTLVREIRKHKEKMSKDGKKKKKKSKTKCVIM
Procedure: as §4

Sequence of NRAS (SEQ ID NO: 5) (P01111 with tags, fused parts or gaps): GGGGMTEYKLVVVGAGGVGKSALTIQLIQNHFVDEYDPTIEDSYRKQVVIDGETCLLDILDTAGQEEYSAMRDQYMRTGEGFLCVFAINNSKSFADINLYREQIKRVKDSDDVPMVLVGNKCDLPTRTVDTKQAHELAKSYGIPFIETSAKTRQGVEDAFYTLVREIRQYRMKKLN

Row | Structure (SMILES) | IC50 (NRAS (SEQ ID NO: 5)) [nM] | IC50 [1] [nM] | IC50 [2] [nM] | IC50 (HRAS (SEQ ID NO: 4)) [nM] | IC50 [3] [nM] | IC50 [4] [nM] | IC50 (G13D) [nM]
1 | Cc1cc2[nH]ncc2c(-c2c(F)cc3c(N4CCOC[C@@](C)(O)C4)nc(OC[C@@]45CCCN4C[C@H](F)C5)nc3c2F)c1C(F)(F)F [Ex-41, (6S)-4-(6,8-difluoro-2-(((2R,7aS)-2-fluorotetrahydro-1H-pyrrolizin-7a(5H)-yl)methoxy)-7-(6-methyl-5-(trifluoromethyl)-1H-indazol-4-yl)quinazolin-4-yl)-6-methyl-1,4-oxazepan-6-ol] | > 11100 | 203 | 285 | > 11100 | 33 | 60 | 48
2 | C#Cc1cccc2cc(O)cc(-c3c(F)cc4c(N5CCC[C@@](C)(O)C5)nc(OC[C@@]56CCCN5C[C@H](F)C6)nc4c3F)c12 [Ex-42, (3R)-1-(7-(8-ethynyl-3-hydroxvnaphthalen-1-yl)-6,8-difluoro-2-(((2R,7aS)-2-fluorotetrahydro-1H-pyrrolizin-7a(5H)-yl)methoxy)quinazolin-4-yl)-3-methylpiperidin-3-ol] | > 10000 | 58 | 91 | > 10000 | 3 | 3 | 4

The next lines start with the values.

Row | IC50 (NRAS (SEQ ID NO: 5)) [nM] | IC50 [1] [nM] | IC50 [2] [nM] | IC50 (HRAS (SEQ ID NO: 4)) [nM] | IC50 [3] [nM] | IC50 [4] [nM] | IC50 (G13D) [nM] | Structure (SMILES)
3 | > 9950 | 41 | 70 | > 9950 |  |  |  | C#Cc1cccc2cc(O)cc(-c3c(Cl)cc4c(N5CCC[C@@](C)(O)C5)nc(OC[C@@]56CCCN5C[C@H](F)C6)nc4c3F)c12 [Ex-1, (3R)-1-(6-chloro-7-(8-ethynyl-3-hydroxvnaphthalen-1-yl)-8-fluoro-2-(((2R,7aS)-2-fluorotetrahydro-1H-pyrrolizin-7a(5H)-yl)methoxy)quinazolin-4-yl)-3-methylpiperidin-3-ol]
4 | > 9950 |  |  | > 9950 |  |  |  | CN(C)CC1(COc2nc(N3CCCC(C)(O)C3)c3cc(F)c(-c4cc(O)cc5ccccc45)c(F)c3n2)CC1 (stereo not shown) [Ex-8, 1-(2-((1-((dimethylamino)methyl)cyclopropyl)methoxy)-6,8-difluoro-7-(3-hydroxynaphthalen-1-yl)quinazolin-4-yl)-3-methylpiperidin-3-ol]
5 | > 9950 |  |  | > 9950 | 283 | 237 | 341 | CN(C)CC1(COc2nc(N3CCCC(O)CC3)c3cc(Cl)c(-c4ccc(F)c5sc(N)nc45)c(F)c3n2)CC1 (stereo not shown) [Ex-17, 1-(7-(2-amino-7-fluorobenzo[d]thiazol-4-yl)-6-chloro-2-((1-((dimethylamino)methyl)cyclopropyl)methoxy)-8-fluoroquinazolin-4-yl)azepan-4-ol]
